# Assay results taken from PMC6268586, “Effect of Wine and Vinegar Processing of Rhizoma Corydalis on the Tissue Distribution of Tetrahydropalmatine, Protopine and Dehydrocorydaline in Rats” (Molecules, 2012).
# Like-named read-outs stand apart in the source and are kept apart here.
# Experiment: Tissue distribution of THP, DHC and protopine in rat tissues after gastric gavage administration (HPLC-UV, non-compartmental analysis)
# Assay type: in vivo, Wistar male rats
# Settings: male, Wistar, po, 26.1 mg/kg; for AUC(0-t): read-out: AUC0–24 h of DHC; for Cmax: read-out: Cmax of DHC; for MRT: read-out: MRT of DHC; for Tmax: read-out: Tmax of DHC
# Experimental: The experimental protocol was approved by the University's Animal Ethics Committee. […] Rats had unlimited access to water. Standard food was given until 12 h before the experiments. Rhizoma Corydalis was processed according to Pharmacopoeia of Chinese Medicine and National Guideline of Traditional Chinese Medicinal Plants Processing. Briefly, fresh Rhizoma Corydalis was boiled in water till the pith turn light brown color. Cooked rhizome was sliced into pieces (4 mm, diameter) and dried at 25 °C. Dried slices were mixed with edible vinegar (100:20, rhizome/vinegar, w/v) or yellow wine (100:10, rhizome/wine, w/v) and the slices allowed to completely absorb the vinegar or wine. The soaked slices were then stir-fried in a metallic pan over a low flame till they were completely dry. The processed Rhizoma Corydalis was added with 70% ethanol (1:30 w/v) and sonicated for 1 h at room temperature. The extract was then concentrated to remove the ethanol residue and stored at 4 °C for further use. […] The ethanol extract of the unprocessed Rhizoma Corydalis and THP, DHC and protopine pure compound were used as the controls. Three hundred and sixty healthy rats were used in total and are divided into six groups (Group 1-6, sixty rats per group). Drugs were administrated by gastric gavage method. In order to keep the dose of THP, DHC and protopine constant in each group, the amount of ethanol extract of Rhizoma Corydalis administrated was normalized based on the dose of protopine pure compound used. The dose of THP and DHC pure compound administrated was same with that in the ethanol extract of Rhizoma Corydalis. The details were listed below. […] Rats were administrated with the 70% ethanol extract of unprocessed Rhizoma Corydalis at a dose of 17.75 g extract/kg body weight. […] Rats received the extract of vinegar-processed Rhizoma Corydalis at a dose of 15 g extract/kg rat body weight. Group 3: Rats were administrated with the extract of wine processed Rhizoma Corydalis at a dose of 15.78 g extract/kg body weight. […] Rats received THP pure compound at a dose of 6.45 mg/kg body weight. Group 6: Rats were administrated 26.10 mg of DHC pure compound/kg body weight. […] Brian tissue was further dissected into six parts: cerebrum, cerebellum, diencephalons, brain stem, hippocampus and striatum. All the tissue samples were rinsed with ice-old saline and stored at -20 °C until extraction. Tissue samples were homogenized in three volumes of ice-cold biological saline and centrifuged for 10 min at 10,000 g and 4 °C. An aliquot of the supernatant (0.5 mL) was collected. Liquid-liquid extraction was used to extract THP, DHC and protopine. One hundred microliter of 1.0 μg/mL nuciferin (internal standard) was mixed with 0.5 mL aliquots of the supernatant. […] The supernatant was evaporated completely under the nitrogen stream in a 60 °C water bath. The residue was redissolved in 100 μL of methanol. A CoMetro HPLC system (CoMetro Technology Ltd, South […], NJ, USA) with 6000 PVW detector UV-VIS detector was used. […] Ltd., Liaoning, China). Other chromatographic conditions were: column temperature, 35 °C; mobile phase, acetonitrile-0.1% phosphoric acid (pH 3.0) (30:70 v/v); flow rate, 1 mL/min; wavelength, 280 nm. Pharmacokinetic parameters were estimated by non-compartmental analysis using Equiv Test/PK (Statistical Solutions Ltd., Saugus, MA, USA). The maximum concentration (Cmax) and the time to reach the maximum concentration (Tmax) were directly obtained from the observed value. All data were represented as mean ± SD. Comparison of values between groups was performed using one-way ANOVA followed by Tukey's test for comparisons among four groups.
# [1] = diencephalon, rat diencephalons
structure (smiles),measurement,setting,value
"COc1cc2c(cc1OC)-c1c(C)c3ccc(OC)c(OC)c3c[n+]1CC2 [DHC, dehydrocorydaline]",AUC(0-t),[1],0.21 ± 0.05 µg·h/mL
same,Cmax,[1],0.08 ± 0.02 µg/mL
same,MRT,[1],5.3 ± 0.12 h
same,Tmax,[1],0.52 ± 0.11 h
same,AUC(0-t),rat brain stem,0.41 ± 0.06 µg·h/mL
same,Cmax,rat brain stem,0.16 ± 0.03 µg/mL
same,MRT,rat brain stem,4.29 ± 0.15 h
same,Tmax,rat brain stem,0.5 h
same,AUC(0-t),rat cerebellum,0.17 ± 0.03 µg·h/mL
same,Cmax,rat cerebellum,0.05 ± 0.02 µg/mL
same,MRT,rat cerebellum,5.67 ± 0.32 h
same,Tmax,rat cerebellum,0.25 h
same,AUC(0-t),rat cerebrum,0.15 ± 0.03 µg·h/mL
same,Cmax,rat cerebrum,0.05 ± 0.01 µg/mL
same,MRT,rat cerebrum,5.39 ± 0.19 h
same,Tmax,rat cerebrum,0.25 ± 0.02 h
same,AUC(0-t),rat heart,0.85 ± 0.12 µg·h/mL
same,Cmax,rat heart,0.44 ± 0.13 µg/mL
same,MRT,rat heart,8.72 ± 6.38 h
same,Tmax,rat heart,0.25 h
same,AUC(0-t),rat hippocampus,0.27 ± 0.06 µg·h/mL
same,Cmax,rat hippocampus,0.07 ± 0.02 µg/mL
same,MRT,rat hippocampus,8.43 ± 0.51 h
same,Tmax,rat hippocampus,1.08 ± 0.07 h
same,AUC(0-t),rat kidney,0.89 ± 0.09 µg·h/mL
same,Cmax,rat kidney,0.31 ± 0.02 µg/mL
same,MRT,rat kidney,4.94 ± 0.12 h
same,Tmax,rat kidney,0.25 ± 0.01 h
same,AUC(0-t),rat liver,1.57 ± 0.34 µg·h/mL
same,Cmax,rat liver,0.62 ± 0.18 µg/mL
same,MRT,rat liver,4.85 ± 0.1 h
same,Tmax,rat liver,0.25 h
same,AUC(0-t),rat lung,0.57 ± 0.13 µg·h/mL
same,Cmax,rat lung,0.37 ± 0.11 µg/mL
same,MRT,rat lung,3.98 ± 0.1 h
same,Tmax,rat lung,0.25 ± 0.01 h
same,AUC(0-t),rat spleen,0.83 ± 0.19 µg·h/mL
same,Cmax,rat spleen,0.36 ± 0.08 µg/mL
same,MRT,rat spleen,3.26 ± 0.08 h
same,Tmax,rat spleen,0.25 ± 0.1 h
same,AUC(0-t),rat striatum,0.21 ± 0.04 µg·h/mL
same,Cmax,rat striatum,0.06 ± 0.02 µg/mL
same,MRT,rat striatum,7.27 ± 0.3 h
same,Tmax,rat striatum,0.25 ± 0.01 h
